Measured values from ChEMBL document CHEMBL3739317, “Design of new phenothiazine-thiadiazole hybrids via molecular hybridization approach for the development of potent antitubercular agents” (Eur J Med Chem, 2015).
Converted amounts (≈) assume the structure as drawn. The source made the active and inactive calls. The rule behind the calls is not given here.

How the values were obtained:
[1] = test system: Staphylococcus aureus; experiment: Antibacterial activity against Staphylococcus aureus at 50 ug/ml after 18 to 24 hrs by disc diffusion method; assay type: functional; details: for zone of inhibition at 50 µg/mL: read-out: IZ
[2] = test system: Vero; experiment: Cytotoxicity against African green monkey Vero cells after 72 hrs by MTT assay; assay type: cell-based; details: Chlorocebus sabaeus
[3] = test system: Mycobacterium tuberculosis; experiment: Antimycobacterial activity against Mycobacterium tuberculosis H37Rv ATCC 27294 after 5 days by microplate alamar blue assay; assay type: functional; details: H37Rv ATCC 27294, 120 h
[4] = Selectivity index, ratio of IC50 for African green monkey Vero cells to MIC for Mycobacterium tuberculosis H37Rv ATCC 27294; assay type: toxicity, cell-based
[5] = test system: Pseudomonas aeruginosa; experiment: Antibacterial activity against Pseudomonas aeruginosa at 75 ug/ml after 18 to 24 hrs by disc diffusion method; assay type: functional; details: read-out: IZ
[6] = test system: Escherichia coli; experiment: Antibacterial activity against Escherichia coli at 75 ug/ml after 18 to 24 hrs by disc diffusion method; assay type: functional; details: read-out: IZ
[7] = test system: Escherichia coli; experiment: Antibacterial activity against Escherichia coli at 50 ug/ml after 18 to 24 hrs by disc diffusion method; assay type: functional; details: read-out: IZ
[8] = test system: Staphylococcus aureus; experiment: Antibacterial activity against Staphylococcus aureus at 75 ug/ml after 18 to 24 hrs by disc diffusion method; assay type: functional; details: for zone of inhibition at 75 µg/mL: read-out: IZ
[9] = test system: Pseudomonas aeruginosa; experiment: Antibacterial activity against Pseudomonas aeruginosa at 50 ug/ml after 18 to 24 hrs by disc diffusion method; assay type: functional; details: read-out: IZ

Row | SMILES | zone of inhibition at 50 µg/mL [1] [mm] | IC50 [2] [µg/mL] | MIC [3] [µg/mL] | selectivity ratio [4] | zone of inhibition at 75 µg/mL [5] [mm] | zone of inhibition at 75 µg/mL [6] [mm] | zone of inhibition at 50 µg/mL [7] [mm] | zone of inhibition at 75 µg/mL [8] [mm] | zone of inhibition at 50 µg/mL [9] [mm] | inhibition zone (IZ) [1] | inhibition zone (IZ) [8]
1 | CCCc1nn(CC(=O)N2c3ccccc3Sc3ccc(Cl)cc32)c(=N)s1 | 8 | 245 (≈ 588 µM) | 0.8 (≈ 1.92 µM) | 306 | 12 | 12 | 8 | 10 | 10 | – | –
2 | N=c1sc(-c2ccc(Cl)cc2)nn1CC(=O)N1c2ccccc2Sc2ccc(Cl)cc21 | 15 | 757 (≈ 1560 µM) | 1.6 (≈ 3.3 µM) | 473 | 20 | 15 | 12 | 17 | 15 | – | –
3 | O=C(O)c1cn(C2CC2)c2cc(N3CCNCC3)c(F)cc2c1=O [CIPROFLOXACIN] | 21 | – | 3.12 (≈ 9.43 µM) | – | 21 | 32 | 27 | 26 | 18 | – | –
4 | CC[C@@H](CO)NCCN[C@@H](CC)CO [ETHAMBUTOL] | – | – | 3.12 (≈ 15.3 µM) | – | – | – | – | – | – | – | –
5 | N=c1sc(-c2ccc(F)cc2)nn1CC(=O)N1c2ccccc2Sc2ccc(C(F)(F)F)cc21 | 7 | 733 (≈ 1460 µM) | 1.6 (≈ 3.18 µM) | 458 | 13 | 11 | 9 | 10 | 7 | – | –
6 | Cc1ccc(-c2nn(CC(=O)N3c4ccccc4Sc4ccccc43)c(=N)s2)cc1 | 16 | 215 (≈ 499 µM) | 0.8 (≈ 1.86 µM) | 269 | 11 | 27 | 24 | 21 | 9 | – | –
7 | CCCc1nn(CC(=O)N2c3ccccc3Sc3ccccc32)c(=N)s1 | 12 | 252 (≈ 658 µM) | 1.6 (≈ 4.18 µM) | 157 | 15 | 14 | 11 | 16 | 11 | – | –
8 | Cc1ccc(-c2nn(CC(=O)N3c4ccccc4Sc4ccc(C(F)(F)F)cc43)c(=N)s2)cc1 | 9 | – | 50 (≈ 100 µM) | – | 9 | 13 | 11 | 11 | 6 | – | –
9 | Cc1nn(CC(=O)N2c3ccccc3Sc3ccccc32)c(=N)s1 | 22 | 433 (≈ 1220 µM) | 1.6 (≈ 4.51 µM) | 271 | 25 | 25 | 20 | 26 | 20 | – | –
10 | COc1ccc(-c2nn(CC(=O)N3c4ccccc4Sc4ccc(Cl)cc43)c(=N)s2)cc1OC | 6 | – | 50 (≈ 97.8 µM) | – | 6 | 8 | 4 | 8 | 4 | – | –
11 | N=c1sc(-c2cccs2)nn1CC(=O)N1c2ccccc2Sc2ccc(Cl)cc21 | – | – | 50 (≈ 109 µM) | – | 11 | 8 | 4 | – | 7 | inactive | inactive
12 | CCCc1nn(CC(=O)N2c3ccccc3Sc3ccc(C(F)(F)F)cc32)c(=N)s1 | 7 | 238 (≈ 529 µM) | 3.12 (≈ 6.94 µM) | 76.4 | 7 | 9 | 6 | 11 | 3 | – | –
13 | Cc1nn(CC(=O)N2c3ccccc3Sc3ccc(Cl)cc32)c(=N)s1 | 10 | 470 (≈ 1210 µM) | 1.6 (≈ 4.11 µM) | 294 | 13 | 16 | 14 | 13 | 9 | – | –
14 | N=c1sc(-c2ccc(F)cc2)nn1CC(=O)N1c2ccccc2Sc2ccc(Cl)cc21 | 5 | 465 (≈ 992 µM) | 3.12 (≈ 6.66 µM) | 149 | 10 | 12 | 7 | 9 | 7 | – | –
15 | COc1ccc(-c2nn(CC(=O)N3c4ccccc4Sc4ccccc43)c(=N)s2)cc1OC | 18 | – | 12.5 (≈ 26.2 µM) | – | 25 | 16 | 13 | 21 | 20 | – | –
16 | N=c1sc(-c2cccs2)nn1CC(=O)N1c2ccccc2Sc2ccccc21 | – | – | 50 (≈ 118 µM) | – | 4 | 7 | 6 | – | 2 | inactive | inactive
17 | Cc1ccc(-c2nn(CC(=O)N3c4ccccc4Sc4ccc(Cl)cc43)c(=N)s2)cc1 | 10 | – | 50 (≈ 108 µM) | – | 7 | 9 | 7 | 12 | 4 | – | –
18 | COc1ccc(-c2nn(CC(=O)N3c4ccccc4Sc4ccc(C(F)(F)F)cc43)c(=N)s2)cc1OC | 4 | – | 50 (≈ 91.8 µM) | – | 9 | 10 | 8 | 7 | 6 | – | –
19 | N=c1sc(-c2ccc(Cl)cc2)nn1CC(=O)N1c2ccccc2Sc2ccccc21 | 7 | – | 50 (≈ 111 µM) | – | 10 | 10 | 8 | 9 | 7 | – | –
20 | N=c1sc(-c2cccs2)nn1CC(=O)N1c2ccccc2Sc2ccc(C(F)(F)F)cc21 | 5 | – | 50 (≈ 102 µM) | – | 12 | 10 | 8 | 8 | 8 | – | –
21 | Cc1nn(CC(=O)N2c3ccccc3Sc3ccc(C(F)(F)F)cc32)c(=N)s1 | 14 | 350 (≈ 828 µM) | 1.6 (≈ 3.79 µM) | 219 | 15 | 20 | 15 | 17 | 12 | – | –
22 | CN[C@@H]1[C@H](O[C@H]2[C@H](O[C@H]3[C@H](O)[C@@H](O)[C@H](N=C(N)N)[C@@H](O)[C@@H]3N=C(N)N)O[C@@H](C)[C@]2(O)C=O)O[C@@H](CO)[C@H](O)[C@H]1O [STREPTOMYCIN] | – | – | 6.25 (≈ 10.7 µM) | – | – | – | – | – | – | – | –
23 | NNC(=O)c1ccncc1 [ISONIAZID] | – | – | 0.1 (≈ 0.729 µM) | – | – | – | – | – | – | – | –
24 | N=c1sc(-c2ccc(Cl)cc2)nn1CC(=O)N1c2ccccc2Sc2ccc(C(F)(F)F)cc21 | 11 | – | 25 (≈ 48.2 µM) | – | 14 | 12 | 11 | 13 | 9 | – | –
25 | N=c1sc(-c2ccc(F)cc2)nn1CC(=O)N1c2ccccc2Sc2ccccc21 | 5 | 247 (≈ 568 µM) | 3.12 (≈ 7.19 µM) | 79.1 | 12 | 11 | 8 | 8 | 8 | – | –
